Several values for one entry are separate records, joined by “and”; a condition that tells them apart may be missing. Equal values may be shown once. Each block holds one compound with its values, some of them ahead of it.
How the values were obtained:
[1] = FDA MEDWATCH, in words; cited from earlier work
[2] = Kinetic study of slow-release propranolol granules given by mouth to anaesthetised dogs; portal venous and systemic blood concentration; type: in vivo; conditions: for Propranolol Concentration, Systemic: systemic blood
Text: Experiments were undertaken in four dogs under general anaesthesia induced with halothane and then maintained with ketamine and xylazine. Cardiovascular status was monitored by measurement of heart rate and blood pressure and by measurement of arterial blood gases. Ventilation was assisted to maintain blood gases within physiological limits. A catheter was placed in the femoral artery to permit sampling of arterial blood. After laparotomy, a catheter was placed in a mesenteric vein and advanced to the portal vein to permit sampling of portal venous blood samples.
Propranolol was administered by mouth on the evening before, and then again one hour before the study as a dose of 40 mg in granules taken from a 160 mg slow release formulation of propranolol (Cardinol; Pacific Pharmaceuticals New Zealand). […] The animals were sacrificed at the end of he experiment.
The concentration in systemic blood was generally below the level of detection (<5 ug/ml).

[3] = review as at 18 Nov. 2004; cited from earlier work
[4] = in vivo; cited from earlier work

SMILES: COCc1c(C(C)C)nc(C(C)C)c(/C=C/[C@@H](O)C[C@@H](O)CC(=O)O)c1-c1ccc(F)cc1 [Cerivastatin, cerivastatin]
implication in statin-associated rhabdomyolysis reports [1]: most commonly implicated statin

concentration at 60 min ([2]; dog, portal venous whole blood, oral, 40 mg, portal vein, 60 min, individual dogs 1-4): 5800 ng/mL
concentration in systemic blood ([2]; generally below the level of detection, summary of the table): < 5000 ng/mL
Propranolol Concentration, Portal Vein ([2]; portal vein, 60 min, individual dogs 1-4): 10.9 µg/mL and 10 µg/mL and 6 µg/mL
Propranolol Concentration, Portal Vein ([2]; portal vein, 120 min, individual dogs 1-4): <5 µg/mL and 13 µg/mL and 4 µg/mL
Propranolol Concentration, Systemic ([2]; 30 min, individual dogs 1-4): <5 ug/ml (2×) and 2 ug/ml and <2 ug/ml
Propranolol Concentration, Systemic ([2]; 120 min, individual dogs 1-4): <5 µg/mL and 2 µg/mL and <2 µg/mL
Propranolol Concentration, Systemic ([2]; Baseline, individual dogs 1-4): <5 ug/ml (2×) and 3 ug/ml and <2 ug/ml
SMILES: CC(C)NCC(O)COc1cccc2ccccc12 (centres unmarked) [Propranolol, propranolol]
Propranolol Concentration, Portal Vein ([2]; portal vein, 30 min, individual dogs 1-4): 11.5 µg/mL and 11.8 µg/mL and 13 µg/mL and 2 µg/mL
Propranolol Concentration, Portal Vein ([2]; portal vein, 90 min, individual dogs 1-4): 22 µg/mL and 14.4 µg/mL and 10 µg/mL and 5 µg/mL
Propranolol Concentration, Portal Vein ([2]; portal vein, Baseline, 40 mg slow-release granules by mouth evening before and one hour before study, individual dogs 1-4): <5 µg/mL and 28.8 µg/mL and 21 µg/mL and 36 µg/mL
portal versus systemic concentration (liver selectivity) ([2]; small series in dogs, conclusion in words): concentration gradients between portal and systemic vessels
Propranolol Concentration, Systemic ([2]; 60 min, individual dogs 1-4): 6.2 µg/mL and <5 µg/mL and 2 µg/mL and <2 µg/mL
Propranolol Concentration, Systemic ([2]; 90 min, individual dogs 1-4): 5.8 µg/mL and <5 µg/mL and 2 µg/mL and <2 µg/mL

SMILES: CC(C)c1c(C(=O)Nc2ccccc2)c(-c2ccccc2)c(-c2ccc(F)cc2)n1CC[C@@H](O)C[C@@H](O)CC(=O)O [Atorvastatin]
transient global amnesia cases within Australia [3]: 7 cases

SMILES: CC[C@H](C)C(=O)O[C@H]1C[C@H](O)C=C2C=C[C@H](C)[C@H](CC[C@@H](O)C[C@@H](O)CC(=O)O)[C@H]21 [Pravastatin]
transient global amnesia cases within Australia [3]: 3 cases

SMILES: CCC(C)(C)C(=O)O[C@H]1C[C@@H](C)C=C2C=C[C@H](C)[C@H](CC[C@@H]3C[C@@H](O)CC(=O)O3)[C@H]21 [simvastatin]
half-life [4]: 42 to 240 min

Source: US20070269513A1, “Liver selective drug therapy” (priority 1999, published 2007)
